The record followed here is ChEMBL document CHEMBL1131994, “Discovery of subtype-selective NMDA receptor ligands: 4-benzyl-1-piperidinylalkynylpyrroles, pyrazoles and imidazoles as NR1A/2B antagonists” (Bioorg Med Chem Lett, 1999).

Assay [1] addresses T1, Glutamate NMDA receptor; Grin1/Grin2b (Rattus norvegicus, UniProt P35439+Q00960). Kind of assay: Inhibition of NMDA response at NR1A/2B receptor expressed in Xenopus oocytes. It counts as cell-based, Oocyte.
Target sequence in this assay (Q00960 whole entry, other chains not shown): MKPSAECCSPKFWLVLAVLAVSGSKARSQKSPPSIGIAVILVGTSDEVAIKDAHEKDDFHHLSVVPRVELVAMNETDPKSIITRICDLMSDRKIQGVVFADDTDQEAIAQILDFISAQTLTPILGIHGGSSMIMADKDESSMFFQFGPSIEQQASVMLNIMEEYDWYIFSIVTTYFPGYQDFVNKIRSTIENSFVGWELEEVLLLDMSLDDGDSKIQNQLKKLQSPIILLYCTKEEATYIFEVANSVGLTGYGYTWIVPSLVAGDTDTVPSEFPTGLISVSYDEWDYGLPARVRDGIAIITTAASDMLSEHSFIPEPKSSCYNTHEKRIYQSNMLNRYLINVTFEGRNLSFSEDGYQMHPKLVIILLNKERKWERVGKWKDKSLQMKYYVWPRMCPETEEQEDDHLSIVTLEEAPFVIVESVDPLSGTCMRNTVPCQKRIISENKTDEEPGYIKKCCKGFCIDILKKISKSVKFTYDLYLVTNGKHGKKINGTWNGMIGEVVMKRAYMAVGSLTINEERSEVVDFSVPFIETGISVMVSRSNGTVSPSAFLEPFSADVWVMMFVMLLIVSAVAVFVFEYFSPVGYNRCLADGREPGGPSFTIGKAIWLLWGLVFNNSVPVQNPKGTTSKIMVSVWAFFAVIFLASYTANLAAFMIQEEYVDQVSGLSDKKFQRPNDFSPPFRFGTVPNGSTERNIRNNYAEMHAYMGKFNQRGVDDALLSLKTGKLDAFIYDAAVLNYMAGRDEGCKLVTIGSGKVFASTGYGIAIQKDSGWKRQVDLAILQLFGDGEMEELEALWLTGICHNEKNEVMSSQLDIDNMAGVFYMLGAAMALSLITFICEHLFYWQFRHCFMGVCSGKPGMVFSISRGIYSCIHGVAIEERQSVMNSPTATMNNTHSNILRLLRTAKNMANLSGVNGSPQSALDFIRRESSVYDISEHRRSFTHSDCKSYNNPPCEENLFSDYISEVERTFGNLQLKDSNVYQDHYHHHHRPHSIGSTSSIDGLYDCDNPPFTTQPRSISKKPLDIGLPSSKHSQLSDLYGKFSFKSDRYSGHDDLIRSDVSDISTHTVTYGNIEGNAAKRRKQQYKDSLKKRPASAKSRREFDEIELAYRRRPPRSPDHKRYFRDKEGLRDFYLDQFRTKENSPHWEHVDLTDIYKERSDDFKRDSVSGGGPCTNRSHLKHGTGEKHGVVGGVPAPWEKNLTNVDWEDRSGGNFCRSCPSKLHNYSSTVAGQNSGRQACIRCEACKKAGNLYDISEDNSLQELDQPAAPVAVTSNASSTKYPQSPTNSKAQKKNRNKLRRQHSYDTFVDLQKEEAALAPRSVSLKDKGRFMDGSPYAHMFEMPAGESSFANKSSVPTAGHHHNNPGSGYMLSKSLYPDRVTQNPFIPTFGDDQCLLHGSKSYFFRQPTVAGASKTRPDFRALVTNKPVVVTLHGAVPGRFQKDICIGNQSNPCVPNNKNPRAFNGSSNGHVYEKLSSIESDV
Assay [2] addresses T2, Glutamate receptor ionotropic, NMDA 2C (Rattus norvegicus, UniProt P35439+Q00961). Kind of assay: Compound was tested in vitro for inhibition of NMDA response at cloned NR1A/2C receptor expressed in Xenopus oocytes. Format: cell-based, frog, Oocyte.
The target of assay [3] is Glutamate NMDA receptor; Grin1/Grin2a (Rattus norvegicus, UniProt P35439+Q00959). Kind of assay: Compound was tested in vitro for inhibition of NMDA response at cloned NR1A/2A receptor expressed in Xenopus oocytes. Format: cell-based, frog, Oocyte.
Sequence of Glutamate NMDA receptor; Grin1/Grin2a (Q00959 whole entry, looked up, other chains not shown): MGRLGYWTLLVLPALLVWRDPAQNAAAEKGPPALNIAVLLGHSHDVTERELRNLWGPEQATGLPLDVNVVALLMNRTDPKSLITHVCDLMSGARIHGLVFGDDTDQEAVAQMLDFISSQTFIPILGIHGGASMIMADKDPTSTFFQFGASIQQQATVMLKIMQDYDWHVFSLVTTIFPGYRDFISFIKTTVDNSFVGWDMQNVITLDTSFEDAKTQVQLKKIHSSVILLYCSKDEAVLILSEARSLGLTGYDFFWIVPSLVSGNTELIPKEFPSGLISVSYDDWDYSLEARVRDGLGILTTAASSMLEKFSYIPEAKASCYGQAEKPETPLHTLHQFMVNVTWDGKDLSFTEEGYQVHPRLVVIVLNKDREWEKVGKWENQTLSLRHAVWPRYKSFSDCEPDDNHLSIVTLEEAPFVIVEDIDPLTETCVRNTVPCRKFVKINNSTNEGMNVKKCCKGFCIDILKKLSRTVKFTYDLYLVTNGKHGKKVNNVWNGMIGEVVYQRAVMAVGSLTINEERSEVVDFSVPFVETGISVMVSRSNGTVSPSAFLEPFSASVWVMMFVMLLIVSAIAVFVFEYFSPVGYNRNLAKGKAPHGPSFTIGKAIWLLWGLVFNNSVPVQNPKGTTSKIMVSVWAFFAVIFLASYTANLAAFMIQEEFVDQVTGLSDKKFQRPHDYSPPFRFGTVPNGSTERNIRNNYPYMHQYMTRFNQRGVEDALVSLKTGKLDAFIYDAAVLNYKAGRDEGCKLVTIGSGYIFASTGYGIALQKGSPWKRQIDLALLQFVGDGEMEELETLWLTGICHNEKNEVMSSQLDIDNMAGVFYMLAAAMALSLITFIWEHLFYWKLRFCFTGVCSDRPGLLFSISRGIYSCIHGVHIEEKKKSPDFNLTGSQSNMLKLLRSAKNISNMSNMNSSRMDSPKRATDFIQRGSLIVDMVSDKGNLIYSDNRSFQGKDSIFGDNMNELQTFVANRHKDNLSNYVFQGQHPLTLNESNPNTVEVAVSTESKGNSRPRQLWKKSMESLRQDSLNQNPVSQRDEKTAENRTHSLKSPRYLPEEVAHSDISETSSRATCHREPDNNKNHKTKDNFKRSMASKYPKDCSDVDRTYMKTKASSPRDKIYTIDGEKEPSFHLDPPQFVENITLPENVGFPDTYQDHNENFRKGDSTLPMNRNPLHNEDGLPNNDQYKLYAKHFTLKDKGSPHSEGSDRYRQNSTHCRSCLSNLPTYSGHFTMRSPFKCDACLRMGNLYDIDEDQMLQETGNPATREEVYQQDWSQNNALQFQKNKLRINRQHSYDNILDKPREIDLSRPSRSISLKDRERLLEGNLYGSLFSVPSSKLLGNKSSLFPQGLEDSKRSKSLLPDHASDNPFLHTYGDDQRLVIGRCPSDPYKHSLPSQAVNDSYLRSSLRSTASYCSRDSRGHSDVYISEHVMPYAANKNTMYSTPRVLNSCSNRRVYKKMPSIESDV
The subject of assay [4] is Rattus norvegicus. Kind of assay: Compound was tested in vivo for potentiation of L-DOPA effect in 6-hydroxydopamine-lesioned rat when administered per orally. Format: functional. To be noted: po, read-out: MED.
The target of assay [5] is T1, Glutamate NMDA receptor; Grin1/Grin2b. Kind of assay: The compound was tested in vitro for activity against NR1A/2B sub type of NMDA receptor. Set-up: species or system frog.
Assay [6] has as its target T2, Glutamate receptor ionotropic, NMDA 2C. Kind of assay: The compound was tested in vitro for activity against NR1A/2C sub type of NMDA receptor. Further details: species or system frog.

T2 sequence (Q00961 whole entry, one chain of several): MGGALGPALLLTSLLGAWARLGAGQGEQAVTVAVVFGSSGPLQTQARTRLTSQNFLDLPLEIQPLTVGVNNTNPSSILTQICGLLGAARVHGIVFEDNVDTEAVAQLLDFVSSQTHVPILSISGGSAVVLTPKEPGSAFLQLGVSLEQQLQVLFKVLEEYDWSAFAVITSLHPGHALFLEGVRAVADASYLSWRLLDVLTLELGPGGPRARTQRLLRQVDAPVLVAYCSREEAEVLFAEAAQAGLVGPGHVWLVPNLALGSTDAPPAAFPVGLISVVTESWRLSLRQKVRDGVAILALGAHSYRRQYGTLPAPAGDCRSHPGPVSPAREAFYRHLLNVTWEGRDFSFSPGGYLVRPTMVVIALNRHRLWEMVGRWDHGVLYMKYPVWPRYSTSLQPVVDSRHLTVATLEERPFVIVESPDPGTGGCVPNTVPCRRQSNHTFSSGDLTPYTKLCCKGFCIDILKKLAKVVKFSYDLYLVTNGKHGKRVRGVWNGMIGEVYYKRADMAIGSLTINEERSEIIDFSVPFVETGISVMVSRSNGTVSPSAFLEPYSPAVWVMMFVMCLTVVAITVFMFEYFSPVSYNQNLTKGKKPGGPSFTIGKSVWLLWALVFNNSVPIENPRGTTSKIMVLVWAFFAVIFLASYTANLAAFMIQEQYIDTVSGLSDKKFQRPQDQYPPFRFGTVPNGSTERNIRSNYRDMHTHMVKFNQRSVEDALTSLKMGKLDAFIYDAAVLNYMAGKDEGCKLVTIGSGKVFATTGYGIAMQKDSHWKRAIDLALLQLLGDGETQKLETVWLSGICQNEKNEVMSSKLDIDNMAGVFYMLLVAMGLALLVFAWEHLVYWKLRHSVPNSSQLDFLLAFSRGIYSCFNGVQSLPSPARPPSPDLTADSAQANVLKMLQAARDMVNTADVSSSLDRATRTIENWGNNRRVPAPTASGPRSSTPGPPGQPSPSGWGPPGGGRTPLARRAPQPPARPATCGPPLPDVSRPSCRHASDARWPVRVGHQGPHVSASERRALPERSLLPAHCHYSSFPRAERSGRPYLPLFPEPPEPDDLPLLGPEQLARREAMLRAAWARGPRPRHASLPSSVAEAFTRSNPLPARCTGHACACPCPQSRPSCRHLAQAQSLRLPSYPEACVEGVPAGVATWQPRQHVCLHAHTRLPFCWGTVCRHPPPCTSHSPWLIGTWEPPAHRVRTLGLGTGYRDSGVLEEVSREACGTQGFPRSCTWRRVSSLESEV

A word on the IC50: it is the point on the concentration scale where inhibition reaches its midpoint. A lower IC50 goes with greater potency. In the case of `Cc1ccc(CC2CCN(CCC#Cc3c[nH]cn3)CC2)cc1`, the figures for the IC50 in assay [1], in assay [2] and in assay [3] were 0.02 µM, 38 µM and 16 µM, respectively. The minimal effective dose in assay [4] stood at 10 mg/kg.
For `OC1(c2ccccc2)CCN(CCC#Cc2c[nH]cn2)CC1`, the figures for the IC50 in assay [1], in assay [2] and in assay [3] were 3.5 µM, 36 µM and 8.4 µM, respectively.
For the compound `Clc1ccc(CC2CCN(CCC#Cc3cnc[nH]3)CC2)cc1`, the half-maximal inhibitory concentration (IC50) was found to be 0.028 µM in assay [1], 80 µM in assay [2] and 26 µM in assay [3]. For the same compound, the minimal effective dose in assay [4] is 10 mg/kg.
Take `C(#Cc1cn[nH]c1)CN1CCC(Cc2ccccc2)CC1`: the IC50 was 0.82 µM in assay [5], over 100 µM in assay [6] and over 100 µM in assay [3].
Take `C(#Cc1cnc[nH]1)CCN1CCC(Cc2ccccc2)CC1`: the results for the IC50 in assay [1], in assay [2] and in assay [3] were 0.037 µM, 70 µM and 53 µM, respectively. Besides, the minimal effective dose in assay [4] came out at 3 mg/kg.
Turning to `Fc1ccc(CC2CCN(CCC#Cc3c[nH]cn3)CC2)cc1`, the values for the IC50 in assay [1], in assay [2] and in assay [3] were 0.05 µM, over 100 µM and 40 µM, respectively. In assay [4], the minimal effective dose was over 10 mg/kg.
For `C(#Cc1cn[nH]c1)CCN1CCC(Cc2ccccc2)CC1` the same measures were 0.074 µM, over 100 µM, 67 µM and 30 mg/kg.
With `C(#Cc1cc[nH]c1)CCN1CCC(Cc2ccccc2)CC1`, the IC50 was 0.19 µM in assay [1], over 100 µM in assay [2] and 51 µM in assay [3]. Also, the minimal effective dose in assay [4] is 30 mg/kg.
Turning to `C(#Cc1cnc[nH]1)CN1CCC(Cc2ccccc2)CC1`, the results for the IC50 in assay [1], in assay [2] and in assay [3] were 0.12 µM, 34 µM and 38 µM, respectively. For the same compound, the minimal effective dose in assay [4] amounted to 10 mg/kg.
For the compound `OC1(Cc2ccccc2)CCN(CCC#Cc2c[nH]cn2)CC1`, the IC50 in assay [1] was 0.22 µM; in assay [2], over 100 µM; in assay [3], over 100 µM. Besides, the minimal effective dose in assay [4] was over 10 mg/kg.
In the case of `C(#Cc1cnc[nH]1)CCN1CCC(c2ccccc2)CC1`, the 50% inhibitory concentration (IC50) was 0.81 µM in assay [1], 5 µM in assay [2] and 1.4 µM in assay [3].
In the case of `C(#Cc1cc[nH]c1)CN1CCC(Cc2ccccc2)CC1`, the IC50 in assay [1] came out at 1.1 µM; in assay [2], 56 µM; in assay [3] it was 53 µM.
